The values that follow are results of earlier work, collected in publication PMC5328943 (International journal of pharmaceutics, 2017).

≈ marks a conversion by molar mass, not a printed value.

The conditions of this data set: with TPGS; ref Yu et al., 1999.

Regarding `CC(C)CN(C[C@@H](O)[C@H](Cc1ccccc1)NC(=O)O[C@H]1CCOC1)S(=O)(=O)c1ccc(N)cc1` [amprenavir], the solubility in water was 720 µg/mL (≈ 1420 µM).
